Some results are limits rather than exact numbers.

T1 sequence (Q9NZQ7 19-238): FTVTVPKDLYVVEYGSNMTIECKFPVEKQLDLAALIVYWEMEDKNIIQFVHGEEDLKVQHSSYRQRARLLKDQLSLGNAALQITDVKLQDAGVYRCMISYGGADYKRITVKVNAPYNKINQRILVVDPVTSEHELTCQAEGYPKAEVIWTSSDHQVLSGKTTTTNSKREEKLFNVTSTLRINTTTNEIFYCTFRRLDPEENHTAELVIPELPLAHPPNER

The test has as its target T1, PD-1/PD-L1 (Homo sapiens, UniProt Q9NZQ7).
T1 construct: Recombinant human PD-L1 protein (19-238) with a Histag at the C-terminus; purchased AcroBiosystems PD1-H5229 (PD-L1); PD1-H5257 (PD-1)
Put plainly: PD-1/PD-L1 Homogeneous Time-Resolved Fluorescence (HTRF) Binding Assay. The settings on record: PD-1/PD-L1 HTRF activity; 3 nM PD1, 10 nM PD-L1, 25° C. Here is the method: Example 107. PD-1/PD-L1 Homogeneous Time-Resolved Fluorescence (HTRF) Binding Assay
The assays were conducted in a standard black 384-well polystyrene plate with a final volume of 20 μL. Inhibitors were first serially diluted in DMSO and then added to the plate wells before the addition of other reaction components. The final concentration of DMSO in the assay was 1%. The assays were carried out at 25° C. in the PBS buffer (pH 7.4) with 0.05% Tween-20 and 0.1% BSA. Recombinant human PD-L1 protein (19-238) with a Histag at the C-terminus was purchased from AcroBiosystems (PD1-H5229). Recombinant human PD-1 protein (25-167) with Fe tag at the C-terminus was also purchased from AcroBiosystems (PD1-H5257). PD-L1 and PD-1 proteins were diluted in the assay buffer and 10 μL was added to the plate well. Plates were centrifuged and proteins were preincubated with inhibitors for 40 minutes. The incubation was followed by the addition of 10 μL of HTRF detection buffer supplemented with Europium cryptate-labeled anti-human IgG (PerkinElmer-AD0212) specific for Fe and anti-His antibody conjugated to SureLight®—Allophycocyanin (APC, PerkinElmer-AD0059H). After centrifugation, the plate was incubated at 25° C. for 60 min. before reading on a PHERAstar FS plate reader (665 nm/620 nm ratio). Final concentrations in the assay were […], 10 nM PD-L1, 1 nM europium anti-human IgG and 20 nM anti-His-Allophycocyanin. IC50 determination was performed by fitting the curve of percent control activity versus the log of the inhibitor concentration.
In general, IC50 refers to the concentration at which inhibition is half-maximal. In turn, `CC(=O)NCCNCCn1c(C)cn2cc(-c3cccc(-c4cccc(-c5cc6c(=O)n(CCNCCNC(C)=O)c(C)cn6c5)c4Cl)c3Cl)cc2c1=O` [Compound 54, N,N′-(((((2,2′-dichloro-[1,1′-biphenyl]-3,3′-diyl)bis(3-methyl-1-oxopyrrolo[1,2-a]pyrazine-7,2(1H)-diyl))bis(ethane-2,1-diyl))bis(azanediyl))bis(ethane-2,1-diyl))diacetamide] came in with an IC50 of less than 10 nM.
On to `Cc1cn2cc(-c3cccc(-c4cccc(-c5cc6c(=O)n(CCNCC7CCCN7)c(C)cn6c5)c4Cl)c3Cl)cc2c(=O)n1CCNCC1CCCN1` (stereo not shown) [Compound 55, 7,7′-(2,2′-dichloro-[1,1′-biphenyl]-3,3′-diyl)bis(3-methyl-2-(2-((pyrrolidin-2-ylmethyl)amino)ethyl)pyrrolo[1,2-a]pyrazin-1(2H)-one)], for which the IC50 was no less than 100 nM.
The molecule `Cc1cn2cc(-c3cccc(-c4cccc(-c5cc6c(=O)n(CCNCC(O)CC(=O)O)c(C)cn6c5)c4Cl)c3Cl)cc2c(=O)n1CCNCC(O)CC(=O)O` (stereo not shown) [Compound 56, 4,4′-((((2,2′-dichloro-[1,1′-biphenyl]-3,3′-diyl)bis(3-methyl-1-oxopyrrolo[1,2-a]pyrazine-7,2(1H)-diyl))bis(ethane-2,1-diyl))bis(azanediyl))bis(3-hydroxybutanoic acid)] displayed an IC50 of no less than 100 nM.
Consider `Cc1cn2cc(-c3cccc(-c4cccc(-c5cc6c(=O)n(CCN[C@@H](CCO)C(=O)O)c(C)cn6c5)c4Cl)c3Cl)cc2c(=O)n1CCN[C@@H](CCO)C(=O)O` [Compound 58, (2S,2'S)-2,2′-((((2,2′-dichloro-[1,1′-biphenyl]-3,3′-diyl)bis(3-methyl-1-oxopyrrolo[1,2-a]pyrazine-7,2(1H)-diyl))bis(ethane-2,1-diyl))bis(azanediyl))bis(4-hydroxybutanoic acid)], for which the IC50 is 10 to 100 nM.
The result for `Cc1cn2nc(-c3cccc(-c4cccc(-c5cc6c(=O)n(CCN[C@H](C(=O)O)[C@@H](C)O)c(C)cn6n5)c4Cl)c3Cl)cc2c(=O)n1CCN[C@H](C(=O)O)[C@@H](C)O` [Compound 60, (2S,2'S,3R,3′R)-2,2′-((((2,2′-dichloro-[1,1′-biphenyl]-3,3′-diyl)bis(6-methyl-4-oxopyrazolo[1,5-a]pyrazine-2,5(4H)-diyl))bis(ethane-2,1-diyl))bis(azanediyl)) bis(3-hydroxybutanoic acid)] reads 10 to 100 nM; that for `Cc1cn2nc(-c3cccc(-c4cccc(-c5cc6c(=O)n(CCN[C@H](CO)C(=O)O)c(C)cn6n5)c4Cl)c3Cl)cc2c(=O)n1CCN[C@H](CO)C(=O)O` [Compound 61, (2R,2′R)-2,2′-((((2,2′-dichloro-[1,1′-biphenyl]-3,3′-diyl)bis(6-methyl-4-oxopyrazolo[1,5-a]pyrazine-2,5(4H)-diyl))bis(ethane-2,1-diyl))bis(azanediyl))bis(3-hydroxypropanoic acid)], 10 to 100 nM; that for `Cc1cn2nc(-c3cccc(-c4cccc(-c5cc6c(=O)n(CCN[C@@H](CCO)C(=O)O)c(C)cn6n5)c4Cl)c3Cl)cc2c(=O)n1CCN[C@@H](CCO)C(=O)O` [Compound 62, (2S,2'S)-2,2′-((((2,2′-dichloro-[1,1′-biphenyl]-3,3′-diyl)bis(6-methyl-4-oxopyrazolo[1,5-a]pyrazine-2,5(4H)-diyl))bis(ethane-2,1-diyl))bis(azanediyl))bis(4-hydroxybutanoic acid)], 10 to 100 nM.
For `Cc1nn2cc(-c3cccc(-c4cccc(-c5cc6c(=O)n(CCN[C@@H](CO)C(=O)O)c(C)nn6c5)c4Cl)c3Cl)cc2c(=O)n1CCN[C@@H](CO)C(=O)O` [Compound 64, (2S,2'S)-2,2′-((((2,2′-dichloro-[1,1′-biphenyl]-3,3′-diyl)bis(2-methyl-4-oxopyrrolo[2,1-f][1,2,4]triazine-6,3(4H)-diyl))bis(ethane-2,1-diyl))bis(azanediyl))bis(3-hydroxypropanoic acid)], the IC50 was in the range of 10 to 100 nM.
`CCc1nn2cc(-c3cccc(-c4cccc(-c5cc6c(=O)n(CCN[C@@H](CO)C(=O)O)c(CC)nn6c5)c4Cl)c3Cl)cc2c(=O)n1CCN[C@@H](CO)C(=O)O` [Compound 65, (2S,2'S)-2,2′-((((2,2′-dichloro-[1,1′-biphenyl]-3,3′-diyl)bis(2-ethyl-4-oxopyrrolo[2,1-f][1,2,4]triazine-6,3(4H)-diyl))bis(ethane-2,1-diyl))bis(azanediyl))bis(3-hydroxypropanoic acid)] had an IC50 of 10 to 100 nM.
In the case of `CC(=O)NC[C@H](NCCn1c(C)cn2nc(-c3cccc(-c4cccc(-c5cc6c(=O)n(CCN[C@@H](CNC(C)=O)C(=O)O)c(C)cn6n5)c4Cl)c3Cl)cc2c1=O)C(=O)O` [Compound 68, (2S,2'S)-2,2′-((((2,2′-dichloro-[1,1′-biphenyl]-3,3′-diyl)bis(6-methyl-4-oxopyrazolo[1,5-a]pyrazine-2,5(4H)-diyl))bis(ethane-2,1-diyl))bis(azanediyl))bis(3-acetamidopropanoic acid)], the IC50 is 10 to 100 nM.
On to `Cc1cn2nc(-c3cccc(-c4cccc(-c5cc6c(=O)n(CCN[C@@H](CN(C)C)C(=O)O)c(C)cn6n5)c4Cl)c3Cl)cc2c(=O)n1CCN[C@@H](CN(C)C)C(=O)O` [Compound 69, (2S,2'S)-2,2′-((((2,2′-dichloro-[1,1′-biphenyl]-3,3′-diyl)bis(6-methyl-4-oxopyrazolo[1,5-a]pyrazine-2,5(4H)-diyl))bis(ethane-2,1-diyl))bis(azanediyl))bis(3-(dimethylamino)propanoic acid)], for which the IC50 is no less than 100 nM.
Consider `Cc1cn2nc(-c3cccc(-c4cccc(-c5cc6c(=O)n(CCCN[C@@H](CO)C(=O)O)c(C)cn6n5)c4Cl)c3Cl)cc2c(=O)n1CCCN[C@@H](CO)C(=O)O` [Compound 70, (2S,2'S)-2,2′-((((2,2′-dichloro-[1,1′-biphenyl]-3,3′-diyl)bis(6-methyl-4-oxopyrazolo[1,5-a]pyrazine-2,5(4H)-diyl))bis(propane-3,1-diyl))bis(azanediyl))bis(3-hydroxypropanoic acid)], for which the IC50 was in the range of 10 to 100 nM.
With `Cn1c(CCN[C@@H](CO)C(=O)O)cn2nc(-c3cccc(-c4cccc(-c5cc6c(=O)n(C)c(CCN[C@@H](CO)C(=O)O)cn6n5)c4Cl)c3Cl)cc2c1=O` [Compound 71, (2S,2'S)-2,2′-((((2,2′-dichloro-[1,1′-biphenyl]-3,3′-diyl)bis(5-methyl-4-oxo-4,5-dihydropyrazolo[1,5-a]pyrazine-2,6-diyl))bis(ethane-2,1-diyl))bis(azanediyl))bis(3-hydroxypropanoic acid)], the IC50 is less than 10 nM.
The figure for `CC(=O)NCCNCc1cn2cc(-c3cccc(-c4cccc(-c5cc6c(=O)[nH]c(CNCCNC(C)=O)cn6c5)c4Cl)c3Cl)cc2c(=O)[nH]1` [Compound 72, N,N′-(((((2,2′-dichloro-[1,1′-biphenyl]-3,3′-diyl)bis(1-oxo-1,2-dihydropyrrolo[1,2-a]pyrazine-7,3-diyl))bis(methylene))bis(azanediyl))bis(ethane-2,1-diyl))diacetamide] is 10 to 100 nM.
`CC(=O)NCCNCc1cn2cc(-c3cccc(-c4cccc(-c5cc6c(=O)n(C[C@@H]7CCC(=O)N7)c(CNCCNC(C)=O)cn6c5)c4Cl)c3Cl)cc2c(=O)n1C[C@@H]1CCC(=O)N1` [Compound 73, N,N′-(((((2,2′-dichloro-[1,1′-biphenyl]-3,3′-diyl)bis(1-oxo-2-(((S)-5-oxopyrrolidin-2-yl)methyl)-1,2-dihydropyrrolo[1,2-a]pyrazine-7,3-diyl))bis(methylene))bis(azanediyl))bis(ethane-2,1-diyl))diacetamide] had an IC50 of 10 to 100 nM.
Molecule `O=c1[nH]c(C[C@@H]2CCCN2)nn2cc(-c3cccc(-c4cccc(-c5cc6c(=O)[nH]c(C[C@@H]7CCCN7)nn6c5)c4Cl)c3Cl)cc12` [Compound 75, 6′-(2,2′-dichloro-[1,1′-biphenyl]-3,3′-diyl)bis(2-(((S)-pyrrolidin-2-yl)methyl)pyrrolo[2,1-f][1,2,4]triazin-4(3H)-one)] gave an IC50 of 10 to 100 nM.
`Cc1cn2nc(-c3cccc(-c4cccc(-c5cc6c(=O)n(CCN7CCCCC7C(=O)O)c(C)cn6n5)c4Cl)c3Cl)cc2c(=O)n1CCN1CCCCC1C(=O)O` (stereo not shown) [Compound 79, 1,1′-(((2,2′-dichloro-[1,1′-biphenyl]-3,3′-diyl)bis(6-methyl-4-oxopyrazolo[1,5-a]pyrazine-2,5(4H)-diyl))bis(ethane-2,1-diyl))bis(piperidine-2-carboxylic acid)]: the IC50 lay within 10 to 100 nM.
The result for `Cc1cn2nc(-c3cccc(-c4cccc(-c5cc6c(=O)n(C[C@H]7CCNC7)c(C)cn6n5)c4Cl)c3Cl)cc2c(=O)n1C[C@H]1CCNC1` [Compound 81, 2,2′-(2,2′-dichloro-[1,1′-biphenyl]-3,3′-diyl)bis(6-methyl-5-(((S)-pyrrolidin-3-yl)methyl)pyrazolo[1,5-a]pyrazin-4(5H)-one)] reads 10 to 100 nM.
The figure for `Cc1cn2nc(-c3cccc(-c4cccc(-c5cc6c(=O)n(CCNC7(C(=O)O)COC7)c(C)cn6n5)c4Cl)c3Cl)cc2c(=O)n1CCNC1(C(=O)O)COC1` [Compound 82, 3,3′-((((2,2′-dichloro-[1,1′-biphenyl]-3,3′-diyl)bis(6-methyl-4-oxopyrazolo[1,5-a]pyrazine-2,5(4H)-diyl))bis(ethane-2,1-diyl))bis(azanediyl))bis(oxetane-3-carboxylic acid)] is no less than 100 nM.
